Laboratory results published in the NIST ThermoML archive (doi:10.1021/acs.jced.9b00278).
Numbers after ± are expanded uncertainties.

Conditions: DSC

O=C(O)c1ccccc1Nc1cccc(C(F)(F)F)c1 [2-[[3-(trifluoromethyl)phenyl]amino]benzoic acid]
Triple point temperature (Crystal 1): 410.95 ± 2.1 K
Triple point temperature (Metastable crystal): 409.15 ± 2.1 K
